Assays:
[1] = biological target: PI3Kα (p110/p85) kinase (wild type, "WT") (Homo sapiens, UniProt P42336); experiment: PI3Kα (p110/p85) kinase ADP-Glo Assay; format: biochemical; details: 25 uM ATP
Experimental: PI3Kα (p110/p85) kinase ADP-Glo Assay. Certain compounds disclosed herein were tested for inhibition of PI3Kα (p110/p85) kinase (wild type, “WT”) in assays based on the ADP-Glo™ Kinase Assay methodology. The assays were carried out in 384-well white plates in a reaction mixture containing PI3Kα (p110/p85) kinase, 25 µM ATP, 5.35 µg/mL PI(4,5)P2:PS Lipid Kinase Substrate and […] compound in buffer containing 50 mM HEPES pH7.5, 50 mM NaCl, 3 mM MgCl2, 0.0025% BSA and 2 mM DTT. PI3Kα (p110/p85) kinase was incubated with Lipid Kinase Substrate and compound for 30 minutes at room temperature and the reaction was initiated by the addition of ATP. After reaction at room temperature for 120 minutes, ADP-Glo™ reagents were added to terminate the kinase reaction and deplete the remaining ATP according to the manufacture's instruction (Promega Corporation). After incubation at room temperature for 1 hour, Kinase Detection Reagent (prepared by reconstituting the lyophilized Kinase Detection Substrate with Kinase Detection Buffer of the kit) was added to convert the ADP to ATP and to allow for the newly synthesized ATP to be measured using a luciferase/luciferin reaction. After incubation at room temperature for 0.5 hour, chemiluminescence signals were recorded on a PHERAstar FSX plate reader (BMG Labtech). The chemiluminescence generated in this assay correlates to the amount of ADP generated in the kinase assay, indicating kinase activity. […] The IC50 for each compound was derived from fitting the data to the four-parameter logistic equation by Dotmatics.

[2] = biological target: PI3Kα (p110[H1047R]/p85) kinase (Homo sapiens, UniProt P42336, H1047R); experiment: PI3Kα (p110[H1047R]/p85) kinase ADP-Glo Assay; format: biochemical; details: 25 uM ATP; for selectivity: WT/H1047R: ADP-Glo Assay IC50 ratio
PI3Kα (p110[H1047R]/p85) kinase, sequence (P42336 whole entry H1047R): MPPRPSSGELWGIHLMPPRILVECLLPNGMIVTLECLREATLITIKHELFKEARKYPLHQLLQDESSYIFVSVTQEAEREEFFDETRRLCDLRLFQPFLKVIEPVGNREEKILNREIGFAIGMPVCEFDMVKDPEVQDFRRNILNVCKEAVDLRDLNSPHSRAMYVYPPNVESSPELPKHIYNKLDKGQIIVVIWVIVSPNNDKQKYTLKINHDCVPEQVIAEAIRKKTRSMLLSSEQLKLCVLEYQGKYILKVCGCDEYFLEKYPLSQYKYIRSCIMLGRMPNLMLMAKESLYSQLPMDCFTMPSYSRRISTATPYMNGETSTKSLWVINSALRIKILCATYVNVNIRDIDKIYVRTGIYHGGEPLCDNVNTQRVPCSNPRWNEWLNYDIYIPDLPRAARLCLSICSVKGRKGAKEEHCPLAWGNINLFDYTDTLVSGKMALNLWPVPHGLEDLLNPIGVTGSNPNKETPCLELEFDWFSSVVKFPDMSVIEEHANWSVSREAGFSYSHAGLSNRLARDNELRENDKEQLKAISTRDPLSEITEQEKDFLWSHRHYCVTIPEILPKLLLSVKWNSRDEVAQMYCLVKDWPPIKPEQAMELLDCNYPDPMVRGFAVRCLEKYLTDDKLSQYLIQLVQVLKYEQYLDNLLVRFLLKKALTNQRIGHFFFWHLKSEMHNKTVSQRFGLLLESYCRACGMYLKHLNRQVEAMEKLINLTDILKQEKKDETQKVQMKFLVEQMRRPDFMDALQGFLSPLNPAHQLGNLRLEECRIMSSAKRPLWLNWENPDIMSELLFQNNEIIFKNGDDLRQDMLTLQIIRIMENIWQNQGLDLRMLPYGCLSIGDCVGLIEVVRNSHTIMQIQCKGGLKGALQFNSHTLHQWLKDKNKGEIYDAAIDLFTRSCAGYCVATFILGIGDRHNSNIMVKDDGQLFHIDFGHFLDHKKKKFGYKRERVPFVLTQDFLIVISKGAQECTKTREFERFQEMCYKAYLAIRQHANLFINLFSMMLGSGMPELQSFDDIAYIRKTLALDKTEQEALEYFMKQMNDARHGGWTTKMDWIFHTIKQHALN
PI3Kα (p110[H1047R]/p85) kinase, sequence (P27986 whole entry partner): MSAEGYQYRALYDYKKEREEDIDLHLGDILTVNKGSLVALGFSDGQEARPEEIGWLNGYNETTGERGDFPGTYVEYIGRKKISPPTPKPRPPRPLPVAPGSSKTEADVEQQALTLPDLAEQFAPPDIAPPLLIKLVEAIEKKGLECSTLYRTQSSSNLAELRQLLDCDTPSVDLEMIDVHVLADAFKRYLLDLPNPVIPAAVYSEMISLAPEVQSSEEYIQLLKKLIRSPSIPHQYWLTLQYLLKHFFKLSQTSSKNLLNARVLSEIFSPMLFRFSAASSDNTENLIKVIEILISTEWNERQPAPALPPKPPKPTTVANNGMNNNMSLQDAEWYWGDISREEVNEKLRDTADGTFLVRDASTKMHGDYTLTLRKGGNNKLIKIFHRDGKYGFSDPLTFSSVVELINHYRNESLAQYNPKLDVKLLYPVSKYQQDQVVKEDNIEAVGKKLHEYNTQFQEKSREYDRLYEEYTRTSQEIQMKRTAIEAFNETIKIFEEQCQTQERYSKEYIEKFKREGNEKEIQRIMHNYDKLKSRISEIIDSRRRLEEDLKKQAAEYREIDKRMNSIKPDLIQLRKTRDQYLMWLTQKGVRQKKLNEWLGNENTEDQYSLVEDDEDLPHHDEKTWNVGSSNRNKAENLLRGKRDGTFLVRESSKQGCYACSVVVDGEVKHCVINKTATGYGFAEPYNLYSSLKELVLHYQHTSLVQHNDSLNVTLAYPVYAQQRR
Experimental: PI3Kα (p110[H1047R]/p85) kinase ADP-Glo Assay. Certain compounds disclosed herein were tested for inhibition of PI3Kα (p110[H1047R]/p85) kinase in assays based on the ADP-Glo™ Kinase Assay methodology. The assays were carried out in 384-well white plates in a reaction mixture containing PI3Kα (p110[H1047R]/p85) kinase, 25 µM ATP, 5.35 µg/ml PI(4,5)P2:PS Lipid Kinase Substrate and […] compound in buffer containing 50 mM HEPES pH7.5, 50 mM NaCl, 3 mM MgCl2, 0.0025% BSA and 2 mM DTT. PI3Kα (p110[H1047R]/p85) kinase was incubated with Lipid Kinase Substrate and compound for 30 minutes at room temperature and the reaction was initiated by the addition of ATP.
After reaction at room temperature for 120 minutes, ADP-Glo™ reagents were added to terminate the kinase reaction and deplete the remaining ATP according to the manufacture's instruction (Promega Corporation). After incubation at room temperature for 1 hour, Kinase Detection Reagent (prepared by reconstituting the lyophilized Kinase Detection Substrate with Kinase Detection Buffer of the kit) was added to convert the ADP to ATP and to allow for the newly synthesized ATP to be measured using a luciferase/luciferin reaction. After incubation at room temperature for 0.5 hour, chemiluminescence signals were recorded on a PHERAstar FSX plate reader (BMG Labtech). The chemiluminescence generated in this assay correlates to the amount of ADP generated in the kinase assay, indicating kinase activity. […] The IC50 for each compound was derived from fitting the data to the four-parameter logistic equation by Dotmatics.

[3] = system: PI3Kα H1047R mutated cell line T-47D; experiment: Phospho-AKT (Ser473) Inhibition Assay (HTRF), T-47D; format: cell-based; details: for IC50: Homo sapiens, T47D, T-47D, 1 hour treatment, read-out: p-AKT Inhibition assay (S473) IC50 T-47D
Experimental: (§1) Cell Culture Maintenance. The T-47D (ATCC, HTB-133) cell line was obtained from the American Type Culture Collection. Cells were maintained in RPMI1640 medium (Gibco, REF #22400105) supplemented with 10% Fetal Bovine Serum (Gibco, REF #10091148). Cultures were maintained in a humidified incubator at 37° C. under 5% CO2/95% air.
(§2) Phospho-AKT Inhibition Assay. HTRF Phospho-AKT (Ser473) detection kit (Cisbio, REF #64AKSPEH) was used in phosphor-AKT inhibition assay. For compound screening, PI3Kα H1047R mutated cell line T-47D and WT cell line SK-BR-3 cells were seeded at a density of 3×10^4 cells per well in 96 well plate (Costar, REF #3599) in 95 μL of assay medium (MEM medium (Gibco, REF #12561-056) with 1×NEAA (Gibco, REF #11140-050), 1 mM sodium pyruvate (Gibco, REF #11360-070), and 1 g/ml human insulin (Topscience, REF #T8221)), overnight. Compounds dissolved in 10 mM stock solutions in DMSO were serially diluted 1:3 in DMSO to generate an 11-point dilution series and plated using an INTEGRA ASSIST PLUS pipetting robot. A 20× intermediate compound dilution plate in RPMI1640 medium (200 M starting compound concentration in 2% DMSO) was then prepared. Five μL of intermediate serially diluted compounds were added to the cell plate to final concentrations ranging from […] to 0.1 nM in 0.1% DMSO. 0.1% DMSO alone was used to establish the maximum signal and GDC0077 at final concentration of 10 μM was used as a reference compound for minimum signal. After 1 hour treatment, removed medium and added 50 μL of supplemented lysis buffer (1×) immediately. Incubated for at least 30 minutes at room temperature under shaking. Transferred 16 μL of cell lysate from the 96-well cell-culture plate to a 384-white detection plate (PerkinElmer, Optiplate 384, 6007299). Added 4 μL of premixed antibody solutions prepared in the detection buffer. Incubated 4 hours at room temperature in dark. The plates were read on PHERAstar FSX Microplate reader (BMG LABTECH, Inc.) using standard HTRF settings.
(§3) Relative IC50 values were determined using luminescence units by calculating percent inhibition with respect to the in-plate “MIN” (GDC0077 reference control) and “MAX” (DMSO) controls. The data were analyzed using a 4-parameter nonlinear logistic equation (four-parameter logistic concentration-response curve): Y=bottom+[(top−bottom)/1+(X/IC50) slope] • where Y=% inhibition, X=concentration of inhibitor, bottom=minimum value of y attained by curve-fit, top=maximum value of y attained by curve-fit and slope=steepness of curve at the IC50.

[4] = system: WT cell line SK-BR-3; experiment: Phospho-AKT (Ser473) Inhibition Assay (HTRF), SK-BR-3; format: cell-based; details: Homo sapiens; SK-BR-3, 1 hour treatment; read-out: p-AKT Inhibition assay (S473) IC50 SK-BR-3
Experimental: The SK-BR-3 (ATCC, HTB-30) cell line was obtained from the American Type Culture Collection. Cells were maintained in McCoy' 5A medium (Gibco, REF #16600108) supplemented with 10% Fetal Bovine Serum. Cultures were maintained in a humidified incubator at 37° C. under 5% CO2/95% air.
as §2, §3

[5] = system: PI3Kα H1047R mutated cell line T-47D cells; experiment: Cell Proliferation Assay (CellTiter-Glo), T-47D; format: cell-based; details: Homo sapiens, T47D, 72 h; T-47D, 3 days treatment
Experimental: as §1
Cell Proliferation Assay. PI3Kα H1047R mutated cell line T-47D cells and WT cell line SK-BR-3 were seeded at a density of 3×10^3 cells per well in 96 well plate (Xinyou Biotechnology, 062096) in 95 μL of culture medium, overnight. Compounds dissolved in 10 mM stock solutions in DMSO were serially diluted 1:3 in DMSO to generate a 9-point dilution series and plated using an INTEGRA ASSIST Plus pipetting robot. A 20× intermediate compound dilution plate in RPMI1640 medium (200 M starting compound concentration in 2% DMSO) was then prepared. Five μL of intermediate serially diluted compounds were added to the cell plate to final concentrations ranging from […] to 1 nM in 0.1% DMSO. 0.1% DMSO alone was used to establish the maximum signal and medium without cells was for minimum signal. After 3 days treatment, equilibrated the plate and its contents at room temperature for approximately 30 minutes. Added 30 μL CellTiter-Glo® Reagent (Promega, REF #G7571) to each well. Then mixed contents for 5 min on plate shaker to induce cell lysis. Incubated at room temperature for 10 minutes to stabilize luminescent signal. The plates were read on PHERAstar FSX Microplate reader using standard luminescence settings.
Relative IC50 values were determined using luminescence units by calculating percent inhibition with respect to the in-plate “MIN” (medium only) and “MAX” (0.1% DMSO) controls. The data were analyzed using a 4-parameter nonlinear logistic equation (four-parameter logistic concentration-response curve): Y=bottom+[(top−bottom)/1+(X/IC50) slope] • where Y=% inhibition, X=concentration of inhibitor, bottom=minimum value of y attained by curve-fit, top=maximum value of y attained by curve-fit and slope=steepness of curve at the IC50.

PI3Kα (p110/p85) kinase (wild type, "WT"), sequence (P42336 whole entry): as the sequence (P42336 whole entry H1047R) above, with R1047H counted along it
PI3Kα (p110/p85) kinase (wild type, "WT"), sequence (P27986 whole entry partner): as the sequence (P27986 whole entry partner) above

Row | Structure (SMILES) | IC50 [1] | IC50 [2] | selectivity: WT/H1047R [2] | IC50 [3] | IC50 [4] | IC50 [5] | Selectivity: SK-BR-3/T-47D (p-AKT) ([3]; p-AKT (S473) IC50 ratio)
1 | Cc1cc(C(C)Nc2ccccc2C(=O)O)c2cc(-c3cnn(-c4cccc(C#N)c4)c3)n(C)c(=O)c2c1 (centres unmarked) [Example 29, 2-((1-(3-(1-(3-cyanophenyl)-1H-pyrazol-4-yl)-2,7-dimethyl-1-oxo-1,2-dihydroisoquinolin-5-yl)ethyl)amino)benzoic acid] | 3.8 µM | 0.26 µM | 15 | 0.107 µM | 2.7 µM | – | 25
2 | COc1ncc(-c2cc3c([C@H](C)Nc4ccccc4C(=O)O)cc(C)cc3c(=O)n2C)cc1F [Example 60, (S)-2-((1-(3-(5-fluoro-6-methoxypyridin-3-yl)-2,7-dimethyl-1-oxo-1,2-dihydroisoquinolin-5-yl)ethyl)amino)benzoic acid] | 24.1 µM | 16.4 µM | 1.5 | – | – | – | –
3 | Cc1cc(C(C)Nc2ccccc2C(=O)O)c2cc(-c3cnc(O)nc3)n(C)c(=O)c2c1 (centres unmarked) [Example 85, 2-((1-(3-(2-hydroxypyrimidin-5-yl)-2,7-dimethyl-1-oxo-1,2-dihydroisoquinolin-5-yl)ethyl)amino)benzoic acid] | 26.8 µM | 1.1 µM | 24.3 | > 10 µM | > 10 µM | – | –
4 | Cc1cc([C@H](C)Nc2ccccc2C(=O)O)c2cc(-c3ccc(F)cc3)n(CC#N)c(=O)c2c1 [Example 65, (S)-2-((1-(2-(cyanomethyl)-3-(4-fluorophenyl)-7-methyl-1-oxo-1,2-dihydroisoquinolin-5-yl)ethyl)amino)benzoic acid] | > 100 µM | > 100 µM | – | – | – | – | –
5 | Cc1cc(C(C)Nc2cnccc2C(=O)O)c2cc(-c3ccc(F)cc3)n(C)c(=O)c2c1 (centres unmarked) [Example 54, 3-((1-(3-(4-fluorophenyl)-2,7-dimethyl-1-oxo-1,2-dihydroisoquinolin-5-yl)ethyl)amino)isonicotinic acid] | > 100 µM | 9.29 µM | >10 | – | – | – | –
6 | Cc1cc(C(C)Nc2csc3ccccc23)c2cc(-c3ccccc3)n(C)c(=O)c2c1 (centres unmarked) [Example 93, 5-(1-(benzo[b]thiophen-3-ylamino)ethyl)-2,7-dimethyl-3-phenylisoquinolin-1(2H)-one] | > 100 µM | > 100 µM | – | – | – | – | –

More lines, in order of falling IC50 [1], values ahead:

Row | IC50 [1] | IC50 [2] | selectivity: WT/H1047R [2] | IC50 [3] | IC50 [4] | IC50 [5] | Structure (SMILES) | Selectivity: SK-BR-3/T-47D (p-AKT) ([3]; p-AKT (S473) IC50 ratio)
7 | 88.8 µM | 1.93 µM | 46.0 | – | – | – | Cc1cc(C(C)Nc2ccccc2C(=O)O)c2cc(-c3ccccc3C(N)=O)n(C)c(=O)c2c1 (centres unmarked) [Example 90, 2-((1-(3-(2-carbamoylphenyl)-2,7-dimethyl-1-oxo-1,2-dihydroisoquinolin-5-yl)ethyl)amino)benzoic acid] | –
8 | 71.6 µM | 0.971 µM | 73.8 | 0.298 µM | – | 3.53 µM | Cc1cc(C(C)Nc2ccccc2C(=O)O)c2cc(C(=O)Nc3ccccc3)n(C)c(=O)c2c1 (centres unmarked) [Example 42, 2-((1-(2,7-dimethyl-1-oxo-3-(phenylcarbamoyl)-1,2-dihydroisoquinolin-5-yl)ethyl)amino)benzoic acid] | –
9 | 34.3 µM | 21.7 µM | 1.6 | – | – | – | Cc1cc([C@H](C)Nc2ccccc2C(=O)O)c2cc(-c3cnc(C(C)(C)O)nc3)n(C)c(=O)c2c1 [Example 68, (S)-2-((1-(3-(2-(2-hydroxypropan-2-yl)pyrimidin-5-yl)-2,7-dimethyl-1-oxo-1,2-dihydroisoquinolin-5-yl)ethyl)amino)benzoic acid] | –
10 | 7.36 µM | 0.432 µM | 17.0 | – | – | – | Cc1cc([C@@H](C)Nc2ccccc2C(=O)O)c2cc(-c3ccc(C(C)(C)O)cc3)n(C)c(=O)c2c1 [Example 98, (R)-2-((1-(3-(4-(2-hydroxypropan-2-yl)phenyl)-2,7-dimethyl-1-oxo-1,2-dihydroisoquinolin-5-yl)ethyl)amino)benzoic acid] | –
